Experimental data: patent publication US6559125B1, “Polyamide-alkylator conjugates and related products and method” (priority 2000, dated 2003)

How the values were obtained:
[1] = system: 3′ and 5′ 32P labeled 241 base pair restriction fragments containing the HIV-1 promoter; test: Thermal cleavage assay (heat-induced single-strand DNA cleavage); format: biochemical
Procedure: Storage phosphor autodiograms of 8% denaturing polyacrylamide gels used to separate the fragments generated by heat induced DNA cleavage at alkylation sites. All reactions contained 10,000 cpm restriction fragment, 10 mM Tris.HCl (pH 7.0), 10 mM KCl, 10 mM MgCl and 5 mM CaCl and were performed at 37° C. Following 24 hour of equilibration, the DNA pellet was resuspended in sodium citrate buffer (pH=7.2) and heated to 90° C. for 15 min to thermally cleave at sites of adenine- or guanine-N3 lesions. (a) 5′-^32P-end-labeled restriction fragment (SEQ ID NO:5). (b) 3′-^32P-end-labeled restriction fragment. (a-b) Lane 1, intact DNA; lane 2, A-specific reaction; lane 3, G-specific reaction; lanes 5-13, […], respectively. (b) Lane 14, 10 μM CHL-Dp (5). Center, alkylation sites on the DNA fragment, indicate by arrows. Sites 5′-TCGTCGACGA-3′ (SEQ ID NO:20) (A), 5′-ACGTCGA-3′ (B), and 5′-ACGTCGA-3′ (E) are match sites and 5′-ACATCTT-3′ (C) and 5′-TCGTCAG-3′ (D) are double base pair mismatches (mismatches indicated by gray boxes).
Storage phosphor autodiogram of 8% denaturing polyacrylamide gels used to separate the fragments generated by heat induced DNA cleavage at alkylation sites. All reactions contained 10,000 cpm restriction fragment, 10 mM Tris.HCl (pH 7.0), 10 mM KCl, 10 mM MgCl2 and 5 mM CaCl2 and were performed at 37° C. Following of equilibrations of 10 minutes-24 hours, the DNA pellet was resuspended in sodium citrate buffer (pH=7.2) and heated to 90° C. for 15 min to thermally cleave at sites of adenine- or guanine-N3 lesions. Lane 1, intact DNA; lane 2, A-specific reaction; lane 3, G-specific reaction; lanes 4-11, 500 pM ImPy-β-ImPy-(R)^CHLγ-ImPy-β-ImPy-β-Dp (2), equilibrations for 10 min, 20 min, 30 min, 1 h, 2 h, 4 h, 12 h, 24 h, respectively. Right. models bound to match sites on the DNA fragment (SEQ ID NO:15). The polyamide is colored as in FIG. 7. The solid arrows indicate cleavage bands from cleavage sites of adenine- or guanine-N3 lesions on the restriction fragment.
All reactions were executed in a total volume of 40 μl. A polyamide stock solution or H2O was added to an assay buffer containing radiolabeled restriction fragment (10,000 cpm), affording final solution conditions of 10 mM Tris.HCl, 10 mM KCl, 10 mM MgCl2, 5 mM CaCl2, pH 7.0, and either 1 pM-10 nM nitrogen mustard-polyamide conjugate or no conjugate (for reference lanes). The solutions were equilibrated at 37° C. for the desired time period. The reactions were stopped by the addition of 60 μl of a solution containing 0.6 M NaOAc, 12.5 mM EDTA, 0.15 mM (bp) calf thymus DNA, 2.0 M NaCl, 0.8 mg/ml glycogen, and ethanol precipitated. Reactions were resuspended in 40 μl […] sodium citrate buffer, pH 7.2, and heated for […] The reactions were ethanol precipitated and resuspended in 1×TBE/80% formamide loading buffer, denatured by heating at 85° C. for 10 minutes, and placed on ice. The reaction products were separated by electrophoresis on an 8% polyacrylamide gel (5% cross-link, 7 M urea) in 1×TBE at 2000 V. Gels were dried and exposed to a storage phosphor screen (Molecular Dynamics) [Johnston, R. F., Pickett, S. C. & Barker, D. L. (1990). Autoradiography using storage phosphor technology. Electrophoresis 11, 355-360].

[2] = system: 5′-end labeled and 3′-end labeled 277 base pair restriction fragment; test: Thermally induced strand cleavage by seco-CBI conjugates; format: biochemical; conditions: for concentration range of alkylation by CBI control compounds: FIG. 17, 1 μM and 10 μM, 12 H, 37° C.
Procedure: Storage phosphor autoradiograms of 8% denaturing polyacrylamide gels used to separate the fragments generated by heat induced DNA cleavage at alkylation sites. All lanes contain 10 kcpm of either 5′ or 3′ radiolabeled DNA. Each reaction was equilibrated in TE, pH 7.5 at 37° C. for 12 H. The unbound polyamide was removed by precipitation, and then strand cleavage was induced by heating at 95° C. for 30 min. (a) 5′-^32P-end labeled restriction fragment (SEQ ID NO:18). (b) 3′-^32P-end labeled restriction fragment. (a-b) lanes 1 and 14, intact DNA; lanes 2-11, 15-24, 1 pM, 2 pM, 5 pM, 10 pM, 20 pM, 50 pM, 100 pM, 200 pM, 500 pM, 1 nM respectively of the corresponding polyamide; lanes 12 and 25, A-specific reaction; lanes 13 and 26, G-specific reaction. (a-b) Ball-and-stick models of polyamides bound to match and mismatch sites on the DNA fragment. Match sites 5′-TGGTCA-3′ and 5′-AGGACT-3′ and single base pair mismatch site 5′-AGGAGT-3′ are indicated in bold on the sequence, with arrows indicating cleavage bands. The polyamide is colored as in FIG. 10, with the bold triangle representing (R)-CBI.
Storage phosphor autoradiograms of 8% denaturing polyacrylamide gels used to separate the fragments generated by heat induced DNA cleavage at alkylation sites. All lanes contain 10 kcpm of either 5′ or 3′ radiolabeled DNA. Each reaction was equilibrated in TE, pH 7.5 at 37° C. from 0 to 10 hours. The unbound polyamide was removed by precipitation, and then strand cleavage was induced by heating at 95° C. for 30 min. (a) 5′-^32P-end labeled restriction fragment (SEQ ID NO: 18). (b) 3′-^32P-end labeled restriction fragment. (a-b) lanes 1 and 11, intact DNA; lanes 2-8, 1 nM of corresponding polyamide, equilibrations for 0, 15 minutes, 30 minutes, 1 hour, 2 hours, 5 hours, and 10 hours, respectively; lanes 9 and 19, A-specific reaction; lanes 10 and 20, G-specific reaction. (a-b) Ball-and-stick models of polyamides bound to match and mismatch sites on the DNA fragment. Match sites 5′-TGGTCA-3′ and 5′-AGGACT-3′ and single base pair mismatch site 5′-AGGAGT-3′ are indicated in bold on the sequence, with arrows indicating cleavage bands. The polyamide is colored as in FIG. 10, with the bold triangle representing (R)-CBI.
Storage phosphor autoradiograms of 8% denaturing polyacrylamide gels used to separate the fragments generated by heat induced DNA cleavage at alkylation sites. All lanes contain 10 kcpm of either 5′ or 3′ radiolabeled DNA. Each reaction was equilibrated in TE, pH 7.5 at 37° C. for 12 H. The unbound polyamide or agent was removed by precipitation, and then strand cleavage was induced by heating at 95° C. for 30 min. (a) 5′-^32P-end labeled restriction fragment. (b) 3′-^32P-end labeled restriction fragment. (a-b) Lane 1, intact DNA; lane 2, 1R, 1 nM; lane 3 1S, 1 nM; lanes 4-5, 2R, 1 μM and 10 μM, respectively; lanes 6-7, 2S, 1 μM and 10 μM, respectively; lane 8, A-specific reaction; lane 9, G-specific reaction.
All reactions were carried out in a volume of 50 μl. A polyamide or seco-CBI-dimethyl gaba stock solution or water (for reference lane) was added to an assay buffer of TE (pH7.5) and […] of 3′- or 5′-radiolabeled DNA. The solutions were allowed to equilibrate for 12 hours or the appropriate time (for time course reactions) at 37° C. The reactions were stopped with 60 μl of a solution containing NaOAc (600 mM), EDTA pH 8.0 (12.5 mM), calf thymus DNA (150 μM base pair), glycogen (0.8 mg mL^−1), and NaCl (2 M). Ethanol was added to remove unbound polyamide and precipitate the products. The reactions were resuspended in 20 μl of TE (pH 7.5) and cleavage was initiated by heating at 95° C. for 30 minutes. The cleavage products were precipitated with 150 μl ethanol and then resuspended in 100 mM trisborate-EDTA/80% formamide loading buffer, and denatured and loaded onto polyacrylamide gels as previously reported. The gels were quantitated by the use of storage phosphor technology. […]

With CN(C)CCCNC(=O)CCCc1ccc(N(CCCl)CCCl)cc1 [compound 4, 4-{4-[bis (2-chloroethyl)amino]phenyl}-N-[3-(dimethylamino)propyl]butanamide] the “cleavage by freely diffusing alkylator” value ([1]; 10 μM concentration) was “no cleavage”.

“(R)-Seco-CBI-β-alanine-(dimethyl)-β-aminobutyric acid [2R]” was tested, and the “concentration range of alkylation by CBI control compounds” value [2] was “alkylate only at micromolar concentrations”.

In the case of “(S)-Seco-CBI-β-alanine-(dimethyl)-γ-aminobutyric acid [2S]”, the “concentration range of alkylation by CBI control compounds” value [2] is reported as “alkylate only at micromolar concentrations”.

For “ImImPyPy-(R)^(R)-CBIγ-ImPyPyPy-β-Dp [conjugate 1R]”, the “alkylation efficiency and rate compared with the other enantiomer conjugate” value [2] was “higher alkylation efficiency and faster rates of alkylation than 1S”, the “alkylation on the 5′-labeled strand” value [2] was “no alkylation” and the site of alkylation [2] was “alkylation at the site which includes a match site for the polyamide”.

For “ImImPyPy-(R)^(S)-CBIγ-ImPyPyPy-β-Dp [conjugate 1S]”, the site of alkylation [2] was “alkylates adjacent to a match site”.

With “ImPy-β-ImPy-(R)^CHLγ-ImPy-β-ImPy-β-Dp [conjugate 2]” the “concentration at which minor cleavage was observed proximal to double base pair mismatch sites” value [1] was “greater than 1 nM”, the “specificity for reaction at match sites over mismatch sites” value [1] was “approximately 20 fold” and the “earliest time at which cleavage was detectable” value ([1]; 0.5 nM, pH 7.0, 37° C.) was 10 min. The “final cleavage yield on the bottom strand” value ([1]; 0.5 nM, pH 7.0, 37° C., 24 hours) was 45%, the “time at which alkylation was half completed at match sites” value ([1]; 0.5 nM, pH 7.0, 37° C., monitored for 24 hours) was 2.2 h and the “cleavage on one strand (bottom strand)” value ([1]; 10 nM concentration, 37° C.) was “quantitative cleavage”. For the same molecule, the “alkylation at subnanomolar concentrations” value ([1]; subnanomolar concentrations) was “high yield”.
